# Calls of active or inactive are those of the source. For most assays here, no stated cut-off is given here; in the data, actives have a measured EC50 and inactives only a lower limit.
# Assays:
# [1] = target: T1, Heat shock factor protein 1 (Mus musculus, UniProt P38532); test: inhibition of MG132-induced HSE-luciferase signal, confirmation, cell-based, NIH3T3, luminescence, dose retest (AID 2382); assay type: functional;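 further: NIH3T3 fibroblasts with HSF1-driven luciferase reporter stressed by proteasome inhibitor MG132; luminescence from HSF1-driven luciferase expression after 8 hours of MG132 stress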
# T1 sequence (P38532 whole entry): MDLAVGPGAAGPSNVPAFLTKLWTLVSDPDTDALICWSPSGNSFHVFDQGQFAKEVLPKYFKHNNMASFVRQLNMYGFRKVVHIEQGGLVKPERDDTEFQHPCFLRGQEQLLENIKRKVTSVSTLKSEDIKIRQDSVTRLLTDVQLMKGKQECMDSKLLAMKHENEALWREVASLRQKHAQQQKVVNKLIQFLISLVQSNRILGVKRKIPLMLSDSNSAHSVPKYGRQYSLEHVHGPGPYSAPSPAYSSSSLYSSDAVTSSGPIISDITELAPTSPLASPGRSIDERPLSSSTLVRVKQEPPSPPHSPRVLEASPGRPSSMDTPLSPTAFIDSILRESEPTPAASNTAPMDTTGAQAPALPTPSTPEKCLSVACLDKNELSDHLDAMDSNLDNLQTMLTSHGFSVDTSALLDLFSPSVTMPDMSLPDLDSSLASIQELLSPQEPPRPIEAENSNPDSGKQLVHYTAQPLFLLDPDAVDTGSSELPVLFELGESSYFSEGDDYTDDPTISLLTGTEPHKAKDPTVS
# Protein RecA = target: T2, Protein RecA (Mycobacterium tuberculosis, UniProt P9WHJ3); test: Fluorescence Cell-Free Homogeneous Dose Retest to Identify Inhibitors of RecA-Intein Splicing Activity. [Related pubchem assays (depositor defined):AID2097, AID2223, AID489010, AID492950]; assay type: functional
# T2 sequence (P9WHJ3 whole entry): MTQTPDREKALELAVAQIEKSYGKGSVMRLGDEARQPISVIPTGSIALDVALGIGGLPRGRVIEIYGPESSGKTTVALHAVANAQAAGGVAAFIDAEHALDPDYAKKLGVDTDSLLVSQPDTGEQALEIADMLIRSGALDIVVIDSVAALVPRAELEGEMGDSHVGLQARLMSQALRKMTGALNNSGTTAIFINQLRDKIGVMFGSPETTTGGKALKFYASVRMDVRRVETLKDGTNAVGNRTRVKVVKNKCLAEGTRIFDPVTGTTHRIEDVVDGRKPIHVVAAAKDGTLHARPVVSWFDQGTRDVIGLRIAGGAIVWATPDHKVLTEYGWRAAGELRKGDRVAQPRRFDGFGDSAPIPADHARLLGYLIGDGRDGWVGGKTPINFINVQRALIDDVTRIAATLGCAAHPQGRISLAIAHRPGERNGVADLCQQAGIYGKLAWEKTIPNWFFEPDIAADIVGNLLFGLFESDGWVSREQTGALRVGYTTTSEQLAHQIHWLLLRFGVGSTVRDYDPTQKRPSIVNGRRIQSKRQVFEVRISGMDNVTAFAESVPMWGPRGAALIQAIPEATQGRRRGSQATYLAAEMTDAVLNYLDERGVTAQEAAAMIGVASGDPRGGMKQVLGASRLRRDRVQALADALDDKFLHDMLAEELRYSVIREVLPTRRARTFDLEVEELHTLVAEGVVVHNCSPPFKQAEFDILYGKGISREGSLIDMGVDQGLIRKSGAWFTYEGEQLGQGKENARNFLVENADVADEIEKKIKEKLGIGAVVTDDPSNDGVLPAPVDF
# [2] = target: T3, Replicative DNA helicase DnaB (Mycobacterium tuberculosis, UniProt P9WMR3); test: DnaB intein splicing inhibitors, dose response, biochemical, cell-free fluorescence (AID 449749); assay type: functional
# T3 sequence (P9WMR3 whole entry): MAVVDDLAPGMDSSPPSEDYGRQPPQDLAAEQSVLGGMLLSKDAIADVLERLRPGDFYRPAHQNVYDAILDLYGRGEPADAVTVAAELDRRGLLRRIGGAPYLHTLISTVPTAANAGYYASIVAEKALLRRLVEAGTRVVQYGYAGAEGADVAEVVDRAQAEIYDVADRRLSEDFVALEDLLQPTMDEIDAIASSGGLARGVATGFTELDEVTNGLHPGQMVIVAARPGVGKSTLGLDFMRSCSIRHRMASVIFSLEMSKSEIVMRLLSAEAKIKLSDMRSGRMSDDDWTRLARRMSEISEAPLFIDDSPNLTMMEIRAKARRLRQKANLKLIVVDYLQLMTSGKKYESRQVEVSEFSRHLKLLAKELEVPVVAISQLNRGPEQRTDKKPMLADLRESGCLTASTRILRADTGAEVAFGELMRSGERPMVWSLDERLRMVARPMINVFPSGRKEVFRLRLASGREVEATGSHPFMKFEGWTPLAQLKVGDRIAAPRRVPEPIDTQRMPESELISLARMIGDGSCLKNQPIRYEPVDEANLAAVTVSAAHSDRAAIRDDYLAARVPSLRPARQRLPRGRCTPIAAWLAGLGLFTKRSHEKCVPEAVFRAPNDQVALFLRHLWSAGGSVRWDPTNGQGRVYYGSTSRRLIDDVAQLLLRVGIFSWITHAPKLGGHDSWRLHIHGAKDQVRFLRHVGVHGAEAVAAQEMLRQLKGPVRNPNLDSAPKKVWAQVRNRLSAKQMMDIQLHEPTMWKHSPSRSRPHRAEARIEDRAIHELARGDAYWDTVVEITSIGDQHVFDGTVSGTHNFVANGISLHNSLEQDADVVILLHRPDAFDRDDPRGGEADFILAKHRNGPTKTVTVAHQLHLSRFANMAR
# Streptokinase A = target: T4, Streptokinase A (Streptococcus pyogenes serotype M1, UniProt P10520); test: S. pyogenes streptokinase expression inhibitors, potency, dose response, plasminogen activation absorbance, OD405 (AID 1914); assay type: functional, Streptococcus pyogenes M1 GAS;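 further: secreted streptokinase activity via plasminogen activation per viability signal from cell pellet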
# T4 sequence (P10520 whole entry): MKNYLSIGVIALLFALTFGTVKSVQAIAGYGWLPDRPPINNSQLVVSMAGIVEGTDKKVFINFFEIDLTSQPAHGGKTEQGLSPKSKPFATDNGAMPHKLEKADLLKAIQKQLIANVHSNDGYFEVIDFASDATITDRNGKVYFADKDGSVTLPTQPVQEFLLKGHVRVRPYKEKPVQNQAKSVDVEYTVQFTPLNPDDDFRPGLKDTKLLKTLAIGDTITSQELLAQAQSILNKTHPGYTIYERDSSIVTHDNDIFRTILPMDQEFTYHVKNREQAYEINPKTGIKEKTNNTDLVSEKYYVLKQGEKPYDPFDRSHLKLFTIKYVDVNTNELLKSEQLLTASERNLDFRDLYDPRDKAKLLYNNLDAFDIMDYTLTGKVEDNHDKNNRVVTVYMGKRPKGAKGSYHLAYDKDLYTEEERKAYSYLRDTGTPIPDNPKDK
# Streptococcus = test: Group A Streptococcus viability loss, dose response, counter-screen for streptokinase expression inhibitor project, luminescence, BacTiterGlo (AID 1915); assay type: functional, organism-based;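 further: potency for reduction of bacterial viability or growth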
# [3] = system: Streptococcus sp. 'group A'; test: growth inhibition of control SK(-) GAS strain, dose response, counter-screen for streptokinase expression inhibitor project, luminescence, kanamycin, BacTiterGlo, confirmation (AID 1900); assay type: functional, organism-based
# [4] = Luminescence Cell-Based Dose Retest to Confirm Inhibitors of Cancer Stem Cells. [Related pubchem assays (depositor defined):AID2717, AID2721]; assay type: functional; conditions: Homo sapiens
# [5] = target: T1, Heat shock factor protein 1; test: HSF1 potentiators in luciferase reporter cells, confirmation, cell-based, NIH3T3, luminescence, dose retest (AID 435004); assay type: functional;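 further: stress induced by proteasome inhibitor MG132 added 30 min after compound; luciferase reporter driven by HSF1 response element in NIH3T3 cells; actives raise luminescence as potentiators of the MG132 stress response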
# [6] = cytotoxicity toward NIH3T3 fibroblasts, dose response, counter-screen, cell-based, ATP luminescence, mouse fibroblasts (AID 2010); assay type: functional;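 further: cells exposed to compound for about 90 hours before reading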
# [7] = inhibitors of intracellular T. cruzi replication, confirmation, NIH3T3 host cells, beta-gal luminescence (AID 2044); assay type: functional, cell-based;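 further: intracellular parasites grown in NIH/3T3 mouse fibroblasts as host cells; luminescent beta-galactosidase reporter signal from transgenic T. cruzi replicating inside host cells; inhibitors lower the luminescence signal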
# Cytochrome P450 1A2 = target: T5, Cytochrome P450 1A2 (Homo sapiens, UniProt P05177);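 further: PubChem cytochrome P450 panel assay, CYP1A2 panel member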
# T5 sequence (P05177 whole entry): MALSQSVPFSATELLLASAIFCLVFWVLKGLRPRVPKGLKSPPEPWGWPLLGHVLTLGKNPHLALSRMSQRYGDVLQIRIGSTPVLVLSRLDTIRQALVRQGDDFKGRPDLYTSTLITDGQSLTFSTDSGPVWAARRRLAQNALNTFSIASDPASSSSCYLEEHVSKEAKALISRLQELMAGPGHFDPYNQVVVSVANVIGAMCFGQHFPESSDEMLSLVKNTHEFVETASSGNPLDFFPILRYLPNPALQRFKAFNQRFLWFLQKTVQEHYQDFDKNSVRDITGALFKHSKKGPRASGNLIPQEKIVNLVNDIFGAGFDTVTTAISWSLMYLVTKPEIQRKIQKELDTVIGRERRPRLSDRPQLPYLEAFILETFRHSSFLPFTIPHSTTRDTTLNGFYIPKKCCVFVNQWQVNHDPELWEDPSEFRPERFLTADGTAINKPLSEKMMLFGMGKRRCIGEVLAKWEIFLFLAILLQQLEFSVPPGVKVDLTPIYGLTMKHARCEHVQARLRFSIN
# [8] = HEp-2 cell cytotoxicity, dose response, cytotoxicity control for RSV inhibitor project, HTS (AID 2410); assay type: functional; conditions: human respiratory syncytial virus
# Cytochrome P450 3A4 = Cytochrome P450 3A4 (Homo sapiens, UniProt P08684);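 further: CYP3A4 tested as one member of a cytochrome P450 panel screen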
# Chain of Cytochrome P450 3A4 (P08684 whole entry): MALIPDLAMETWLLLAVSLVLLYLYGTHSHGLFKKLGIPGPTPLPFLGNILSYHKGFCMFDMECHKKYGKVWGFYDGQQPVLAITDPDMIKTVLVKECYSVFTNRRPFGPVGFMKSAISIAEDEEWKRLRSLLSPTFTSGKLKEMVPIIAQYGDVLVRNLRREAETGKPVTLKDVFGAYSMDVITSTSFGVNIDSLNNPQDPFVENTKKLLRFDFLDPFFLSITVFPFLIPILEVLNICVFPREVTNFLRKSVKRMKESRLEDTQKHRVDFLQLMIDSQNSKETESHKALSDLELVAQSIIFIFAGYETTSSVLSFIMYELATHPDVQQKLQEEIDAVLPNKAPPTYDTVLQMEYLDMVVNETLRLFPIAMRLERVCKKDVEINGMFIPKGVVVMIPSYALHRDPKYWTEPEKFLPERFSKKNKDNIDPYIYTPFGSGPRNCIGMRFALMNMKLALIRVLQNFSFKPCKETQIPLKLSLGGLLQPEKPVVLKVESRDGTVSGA
compound,measurement,setting,value
CC1COc2ccccc2N1C(=O)c1ccc(F)cc1 (stereo unspecified),EC50,[1],> 195 µM (not active)
Cc1ccc(N2C(=O)C(Cl)=C(N3CCOCC3)C2=O)c(C)c1,EC50,Protein RecA,4.19 µM (active)
same,AC50,[2],16 µM (active)
COc1ccc(NC(=O)c2[nH]cnc2C(=O)N[C@@H](CC(C)C)C(=O)OC(C)(C)C)cc1,EC50,Streptokinase A,> 150 µM (not active)
same,EC50,Streptococcus,11.6 µM (active)
same,EC50,[3],4.08 µM (active)
same,AC50,[4],7.16 µM (active)
CCOC(=O)c1cc(C#N)c(NCc2ccccc2)nc1C,EC50,[1],> 195 µM (not active)
CN(/C(=N\S(=O)(=O)c1ccccc1)c1ccccc1)c1ccc(O)cc1,EC50,[5],> 260 µM (inactive)
O=C(CNC(=O)C1COc2ccccc2O1)N/N=C\c1ccccc1Cl (stereo unspecified),EC50,Protein RecA,> 380 µM (inactive)
same,AC50,[2],189 µM (active)
COc1ccc(-n2cc([N+](=O)[O-])c(=O)c3ccc(Cl)cc32)cc1,EC50,[1],> 195 µM (not active)
Cc1ccc(OCCN2CCN(c3nc(NCc4ccco4)c4ccccc4n3)CC2)cc1,EC50,[6],6.18 µM (active)
same,AC50,[4],4.7 µM (active)
same,EC50,[7],1.35 µM (active)
O=C(CCc1ccc(S(=O)(=O)N2CCOCC2)cc1)N1CCN(Cc2ccc3c(c2)OCO3)CC1,EC50,[5],> 260 µM (inactive)
COc1cccc(NP(=O)(Oc2ccc(Cl)cc2)Oc2ccc(Cl)cc2)c1,EC50,Streptokinase A,4.68 µM (active)
same,EC50,Streptococcus,11.2 µM (active)
same,EC50,[3],6.17 µM (active)
same,AC50,[4],3.11 µM (active)
COc1ccc(-c2cc(C(=O)NCc3ccco3)c3ccccc3n2)cc1,EC50,[5],158 µM (active)
CCOC(=O)c1nn(-c2ccc(F)cc2)c(-c2ccccc2)c1C(=O)c1ccccc1,AC50,[4],5.46 µM (active)
CCC1(C)Cc2c(sc3nc(SC)n(Cc4ccccc4)c(=O)c23)CO1 (stereo unspecified),AC50,[4],0.259 µM (active)
COc1ccc2nc(SCC(=O)NN)cc(C)c2c1,EC50,Protein RecA,10.6 µM (active)
same,AC50,[2],50.5 µM (active)
same,AC50,Cytochrome P450 1A2,398 nM (inconclusive)
FC(F)(F)c1cnc(Sc2nc3nccc(-c4ccc(Cl)cc4)n3n2)c(Cl)c1,EC50,[6],> 30 µM (not active)
same,EC50,[5],> 260 µM (inactive)
same,EC50,[7],1.72 µM (active)
NC(=O)CC(NC(=O)Cc1cccc2ccccc12)c1ccc(NCc2ccc(F)c(F)c2)c([N+](=O)[O-])c1 (stereo unspecified),AC50,[4],11.2 µM (active)
Cc1[nH]n(C(C)(C)C)c(=O)c1Sc1ccccc1,EC50,Protein RecA,2.02 µM (active)
same,AC50,[2],19.1 µM (active)
COc1cc(/C=C/C(=O)c2c(O)ccc3c(C)cc(=O)oc23)ccc1O,EC50,[5],15 µM (active)
Oc1ccc(Nc2nc(-c3ccccc3O)nc3ccccc23)cc1,AC50,[4],2.71 µM (active)
O=C(CSC1=NCCS1)Nc1nc(-c2ccccc2)cs1,EC50,Protein RecA,7.45 µM (active)
same,AC50,[2],> 380 µM (inconclusive)
O=C(CCNc1cccc(F)c1)c1cccc([N+](=O)[O-])c1,EC50,Protein RecA,> 380 µM (inactive)
same,AC50,[2],> 380 µM (inactive)
COc1ccc(Cc2nnc(SCC(=O)Nc3ccc(N4CCOCC4)cc3)o2)cc1,EC50,[5],> 260 µM (inactive)
C=CCc1ccc(OCC(O)CO)c(OC)c1 (stereo unspecified),EC50,[5],> 260 µM (inactive)
COc1cc(NC(=O)c2cc([N+](=O)[O-])ccc2NC(=O)CNC2CCCCC2C)cc(OC)c1 (stereo unspecified),EC50,[5],> 260 µM (inactive)
COC(=O)C1C(=O)C2=C(CC1C)N=C(C)/C(=C(/O)OCc1ccc(OC)cc1)C2c1ccc(C)o1 (stereo unspecified),EC50,[5],> 260 µM (inactive)
COc1ccc(S(=O)(=O)Cc2ccc(C(=O)NCCCN(C)c3ccccc3)o2)cc1,EC50,[5],> 260 µM (inactive)
Cc1noc(C)c1CSCC(=O)Oc1ccc(N(C)S(=O)(=O)c2ccc(Cl)cc2)cc1,EC50,Protein RecA,13.8 µM (active)
same,AC50,[2],2.34 µM (active)
Oc1cccnc1Sc1cccc(C(F)(F)F)c1,EC50,[5],165 µM (active)
COc1ccccc1/C=C/C=N/n1c(S)nnc1-c1[nH]nc2c1CCC2,AC50,[4],13.7 µM (active)
CCOc1ccc(OCc2ccc(C(=O)N3CCc4ccccc4C3)o2)cc1,CC50,[8],23.4 µM (active)
same,AC50,Cytochrome P450 3A4,39.8 µM (inconclusive)
COc1ccc(Br)cc1CN1CCCCCCC1,EC50,[5],> 260 µM (inactive)
Cc1ccc(C(=O)NCC(C)NC(=O)c2ccc(C)c([N+](=O)[O-])c2)cc1[N+](=O)[O-] (stereo unspecified),EC50,[5],> 260 µM (inactive)

# Reference: ChEMBL document CHEMBL1201862, “PubChem BioAssay data set” (2004)
